From patent US12357702B2, “Peptidic diagnostic compositions” (S. M. Discovery Group Inc., priority 2013, dated 2025)
Where a SMILES comes first, the peptide text is derived from it. Where no end group is shown, it is not given here. The star is where a group is joined. RhodamineB = CCN(CC)c1ccc2c(-c3ccccc3C(=O)*)c3ccc(=[N+](CC)CC)cc-3oc2c1; 5FAM = O=C1OC2(c3ccc(O)cc3Oc3cc(O)ccc32)c2ccc(C(=O)*)cc21; FAM = fluorescein amidite label

Columns and labels:
[1] = test system: hCMEC/D3 cells; assay: LDH cytotoxicity assay; assay type: cell-based, human; details: 24 h; for LDH leakage in the medium compared to the control: 1 to 20 μM peptide
Experimental: Cell viability assessment following treatment of cells with the fluorescent peptide FIG. 26A or siRNA/FAM-CGY complex FIG. 26B for 24 h, determined by LDH assay (n=6). Background: untreated cells. To examine the cytotoxicity of the peptide and the siRNA/FAM-CGY complex, the hCMEC/D3 cells were incubated with concentrations 1, 2, 5, 10, 20 μM of the peptide and different relations of siRNA/FAM-CGY complexes (8:5, 16:5 or 24:5) for 24 h, the viability of cells without treatment was used as a control. The cytotoxicity was measured by a LDH assay. The LDH assay measures the membrane integrity as a function of the amount of cytoplasmic LDH leaked into the medium.
The cytoxicity of FAM-CGY peptide and siRNA/FAM-CGY complex was evaluated by […] (LDH) assay (FIG. 26). The hCMEC/D3 cells were incubated with different concentrations of the peptide (from 1 to 20 μM) and different formulations of siRNA/FAM-CGY complexes for 24 h. The viability of cells without treatment was used as a control. The LDH assay has means of measuring the membrane integrity as a function of the amount of cytoplasmic LDH leaked into the medium. […] Thus, there were no significant differences observed between the groups treated with FAM-CGY, FAM-d-CGY and CGY-FAM.

[2] = test system: brain capillary endothelial cells; details: cited from earlier work
[3] = test system: complement activation products SC5d-9, C5a, and C3a; assay: complement activation in human serum; details: healthy human serum, low and high concentration
Experimental: FIGS. 12A, 12B, and 12C are graphs illustrating a complement activation experiment. The complement activation products FIG. 12A. […], FIG. 12B. C5a, and FIG. 12C. C3a were quantified in healthy human serum after incubation of CGY, FAM-CGY and FAM-d-CGY peptide at low and high concentration. Background noise and positive control (Zymosan) are presented for each product. Complement activation and fixation is a fundamental process contributing to macrophage clearance of intravenously injected nanopaticles. Accordingly, complement activation studies in human serum were performed with low and high concentrations of FAM-CGY peptide and other peptides (CGY, FAM-d-CGY) for comparison. […] The responses were relatively low, and close to the background activation. Only a slight level of complement activation was observed compared to the positive control (Zymosan). There were no systematic differences between the activation below and above CMC. Conclusion: The FAM-CGY nanoparticles are unlikely to induce complement-mediated immune reactions following intravenous injection.

[4] = test system: hCMEC/D3 cells; assay: uptake of FAM-CGY and FAM-GYR-GYR peptides by FACS; assay type: cell-based, human; details: 1-10 μM, 24 h, all tested concentrations
Experimental: The different cellular uptake of FAM-CGY and FAM-GYR-GYR peptides in hCMEC/D3 cells was investigated by flow cytometry (FACS). hCMEC/D3 cells (2×10^4/cm^2) were seeded on 24-well plate (Corning, NY) and grown 2 days at 37° C. and 5% CO2 in order to reach 60%-70% confluency. The cells were washed 3 times with pre-heated PBS. The peptide uptake experiments were initiated by adding 200 μL of a range of FAM-CGY and FAM-GYR-GYR in different concentrations (1-10 μM/L, diluted in cell medium containing serum). The double peptide contains the sequence […](SEQ ID NO: 2) and optionally has an N-terminal cysteine residue.
After 24 h incubation at 37° C. with 5% CO2, each chamber was washed with pre-heated PBS 3 times, and harvested by trypsinization. A total of 10,000 cells were analyzed by flow cytometry (FACS Array™ Cell Analysis, BD, USA) (FIG. 35).

[5] = test system: hCMEC/D3 cells; assay: double peptide-mediated GFP plasmid transfection; assay type: cell-based, human
Experimental: To evaluate double peptide (DP)-mediated gene transfection, different concentrations of DP and constant amounts of pcDNA3.1 NT-GFP expression plasmid (0.3 μg) (the peptide/DNA change ration of 1:10, 1:20 and 1:40 were investigated in this study) were mixed into 50 μL serum free media, and complexes were formed for 1 h at room temperature, after which another 150 μL serum free media was added (total volume of peptide/DNA complex was 200 μL). The cultured hCMEC/D3 cells (2×10^4 cells) were overlaid with 200 μL peptide/DNA complex, followed by incubation for 4 h at 37° C. in 5% CO2 atmosphere. The cultures were then a washed once with serum-free media and transferred to complete media containing 5% serum for growth. After 48 h, GFP gene expressions were monitored by fluorescence microscopy. Lipofectamine® 2000-mediated transfections were performed as described by the manufacturer's protocol (Life Technologies, CA, USA).

[6] = test system: hCMEC/D3 cells; assay: delivery of cargo peptides by Rh-CGY or CGY peptidic complexes (microscopy, FACS); assay type: cell-based, human; details: 10 μM Rh-CGY or CGY peptide, 24 h
Experimental: Peptidic complexes were formed by drop addition of cargoes (FAM-(C)-NAP, FAM-GYR, FAM-NAP, FAM) to 80 μM rhodamine-conjugated CGY peptide (Rh-CGY) or 80 μM CGY peptide (Table X) in MilliQ (MQ) water with equitable liquid volume and incubated for 60 min. The mixture was diluted with MQ water to a final Rh-CGY or CGY peptide concentration of 10 μM. The peptidic complexes were characterized by NTA for size and electron microscopy (EM) for mophology. Western blot was also employed to detect disulfide bond, which form between the cargo and Rh-CGY peptide or CGY peptide. Briefly, the peptide or complex samples were loaded on 10% Bis-Tris mini gels (Invitrogen, CA, USA) and subjected to electrophoresis. The separated samples were electrophoretically transferred to PVDF membranes by use of an iBlot™ Gel Transfer Device (Life Technologies, USA). Membranes were blocked for 1 h at room temperature in 3% BSA/TBST (137 mM Sodium Chloride, 20 mM Tris, 0.1% Tween-20, pH 7.6), and incubated over night at 4° C. with HRP-Goat anti-Fluorescein antibody (diluted 1:1000 in 2% BSA/TBST). For detection, membranes were incubated with Novex® ECL Chemiluminescent Substrate Reagent Kit (Invitrogen, CA, USA).
Delivery peptide to hCMEC/D3 cells. […] Live cell images were obtained by widefield microscopy, and the intercellular fluorescence intensity was quantified by FACS.

[7] = Nanoparticle Tracking Analysis (NTA) of peptide self-assembly; assay type: physicochemical; details: in MQ water
Experimental: To investigate whether the polypeptide conjugate can self-assemble, Nanoparticle Tracking Analysis (NTA) technology was employed to detect the peptide aggregation. Briefly, 1 mL peptide solutions with different concentrations (0.5, 1, 2.5 and 5 μM) were prepared by diluting the peptide stock solutions (500 μM) with MQ water and incubate for 30 min at room temperature. NTA measurements were performed with a NanoSight LM20 (NanoSight Ltd., Amesbury, United Kingdom) equipped with a sample chamber with a 405 nm blue laser and a Viton fluoroelastomer O-ring. The peptide samples were injected in the sample chamber with sterile syringes (BD Discardit II, New Jersey, USA) until the liquid reached the tip of the nozzle. All measurements were performed at room temperature. For the pH effect of FAM-CGY peptide assembly, FAM-CGY stock solution (500 μM) was diluted into 5 μM with 10 mM HEPES buffer where pH values were adjusted with 1 M HCl or 1 M NaOH, respectively.
Different molar rates of siRNA were added to the FAM-CGY peptide solution (50 μM/L) dropwise in saline solution and incubated for 30 min. […] The atomic force microscopy (AFM) (FIG. 22A), nanoparticle tracking analysis (NTA) (FIG. 22B), fluorescence microscopy (not shown), dynamic light scattering (DLS) technology (not shown) and transmission electron microscopy (TEM) (FIG. 23) were employed to characterize the siRNA/FAM-CGY complex. […]

Question: With “5-FAM-dCys-dGly-dTyr-dArg-dPro-dVal-dHis-dAsn-dIle-dArg-dGly-dHis-dTrp-dAla-dPro-dGly [FAM-d-CGY]” as the molecule, how does the “LDH leakage in the medium compared to the control” value [1] read?
Answer: The value was “did not significantly increase”.

Question: Which “liposome uptake when peptide is coupled to liposomes” value [2] does the source give for “GYRPVHNIRGHWAPG [SEQ ID NO: 1, targeting peptide of WO2011/005098]” here?
Answer: Its value is “did not significantly increase liposome uptake”.

Question: Which “effect on the level of complement activation products SC5d-9, C5a, and C3a” value [3] does the source give for `CC[C@H](C)[C@H](NC(=O)[C@H](CC(N)=O)NC(=O)[C@H](Cc1c[nH]cn1)NC(=O)[C@@H](NC(=O)[C@@H]1CCCN1C(=O)[C@H](CCCNC(=N)N)NC(=O)[C@H](Cc1ccc(O)cc1)NC(=O)CNC(=O)[C@H](CS)NC(=O)c1ccc2c(c1)C(=O)OC21c2ccc(O)cc2Oc2cc(O)ccc21)C(C)C)C(=O)N[C@@H](CCCNC(=N)N)C(=O)NCC(=O)N[C@@H](Cc1c[nH]cn1)C(=O)N[C@@H](Cc1c[nH]c2ccccc12)C(=O)N[C@@H](C)C(=O)N1CCC[C@H]1C(=O)NCC(=O)O` [FAM-CGY] (5FAM-CGYRPVHNIRGHWAPG-OH) here?
Answer: The value was “no significant effect”.

Question: And the “LDH leakage in the medium compared to the control” value [1]?
Answer: The value was “did not significantly increase”.

Question: What about the “cytotoxicity (LDH assay)” value [1] of the same molecule?
Answer: Its value is “no significant cytotoxicity”.

Question: For “FAM-GYR-GYR: FAM-labelled double peptide containing SEQ ID NO: 2, two GYR sequences joined by a glycine residue ({FAM}-GYRPVHNIRGHWAPGGGYRPVHNIRGHWAPG)”, which “uptake compared with FAM-CGY peptide (FACS)” value [4] is on record?
Answer: Its value is “considerably higher uptake”.

Question: Which “LDH leakage in the medium compared to the control” value [1] does the source give for “Cys-Gly-Tyr-Arg-Pro-Val-His-Asn-Ile-Arg-Gly-His-Trp-Ala-Pro-Gly-Lys-5-FAM (CGYRPVHNIRGHWAPGK(5FAM); not fully specified (C-terminus); printed as Cys-Gly-Tyr-Arg-Pro-Val-His-Asn-Ile-Arg-Gly-His-Trp-Ala-Pro-Gly-Lys-5-FAM) [CGY-FAM]” here?
Answer: Its value is “did not significantly increase”.

Question: With GYRPVHNIRGHWAPGGGYRPVHNIRGHWAPG [DP] as the molecule, how does the “translocation of plasmids into cells” value ([5]; charge ratios of peptide/DNA more than 20) read?
Answer: Its value is “able to mediate translocation of plasmids into cells”.

Question: And the “transfection efficiency (GFP fluorescence intensity)” value ([5]; peptide/DNA charge ratio 40:1, 48 h)?
Answer: Its value is “comparable with commercial transfection reagent Lipofectamine® 2000”.

Question: For “Rh-CGY: Rhdomine B conjugated with CGY peptide in the N-terminal (RhodamineB-CGYRPVHNIRGHWAPG)”, which “uptake / delivery of cargo into hCMEC/D3 cells” value [6] is on record?
Answer: Its value is “can efficiently enter the hCMEC/D3 cells”.

Question: What about the “mean (average) size of self-assembly (NTA)” value [7] of the same molecule?
Answer: Its value is 131±60 nm.

Question: What about the “mode (modal size) of self-assembly (NTA)” value [7] of the same molecule?
Answer: The value was 94 nm.
